Results as given in patent US20040235883A1, “Alkyl-substituted imidazopyridines for the treatment of gastrointestinal disorders” (priority 2001, published 2004).

Test system: pentagastrin-stimulated acid secretion of the perfused rat stomach
Experiment: Secretion-inhibiting action on the perfused rat stomach (pentagastrin-stimulated acid secretion, intraduodenal administration in vivo)
Conditions: anesthetized CD rat, female, pentagastrin 1 μg/kg i.v. infusion
Excerpt: Testing of the Secretion-Inhibiting Action on the Perfused Rat Stomach
In Table A which follows, the influence of the compounds according to the invention on the pentagastrin-stimulated acid secretion of the perfused rat stomach after intraduodenal administration in vivo is shown.
The abdomen of anesthetized rats (CD rat, female, 200-250 g; 1.5 g/kg i.m. urethane) was opened after tracheotomy by a median upper abdominal incision and a PVC catheter was fixed transorally in the esophagus and another via the pylorus such that the ends of the tube just projected into the gastric lumen. The catheter leading from the pylorus led outward into the right abdominal wall through a side opening.
After thorough rinsing (about 50-100 ml), warm (37° C.) physiological NaCl solution was continuously passed through the stomach (0.5 ml/min, pH 6.8-6.9; Braun-Unita I). The pH (pH meter 632, glass electrode EA 147; φ=5 mm, Metrohm) and, by titration with a freshly prepared 0.01 N NaOH solution to pH 7 (Dosimat 665 Metrohm), the secreted HCl were determined in the effluent in each case collected at an interval of 15 minutes.
The gastric secretion was stimulated by continuous infusion of […] (=1.65 ml/h) of i.v. pentagastrin (left femoral vein) about 30 min after the end of the operation (i.e. after determination of 2 preliminary fractions). […]

Molecule	Inhibition of acid secretion (%) (dose 1 μmol/kg i.d.)	Inhibition of acid secretion (%) (dose 0.3 μmol/kg i.d.)
Cc1nc2c3c(ccn2c1C)[C@H](C)[C@H](O)CN3 [Example 8, (7S,8S,9R)-8-Hydroxy-2,3,7-trimethyl-7,8,9,10-tetrahydroimidazo[1.2-h][1.7]naphthyridine]	93	–
(7S,8S,9R)-7-Cyanomethyl-8-hydroxy-2,3-dimethyl-7,8,9,10-tetrahydroimidazo[1.2h]-[1.7]naphthyridine [Example 9]	–	52
